Experimental data as given in PubChem BioAssay (NCI).
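Following 48 hours of exposure in 96-well plates, responses at five concentrations were used to interpolate endpoints linearly. TGI: concentration producing complete growth inhibition.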

Tests used:
Test in all cases: growth of human tumour cells (NCI), 48 h
[1] = system: SF-295 CNS
[2] = system: UACC-62 melanoma
[3] = system: A549 NSCLC
[4] = system: SN12C renal
[5] = system: SR leukemia
[6] = system: HOP-62 NSCLC
[7] = system: UO-31 renal
[8] = system: NCI-H23 lung
[9] = system: HL-60(TB) leukemia
[10] = system: OVCAR-4 ovarian
[11] = system: MDA-N
[12] = system: OVCAR-5 ovarian
[13] = system: MALME-3M melanoma
[14] = system: SW-620 colon
[15] = system: NCI-H226 lung
[16] = system: OVCAR-8 ovarian
[17] = system: SK-OV-3 ovarian
[18] = system: 786-0 renal
[19] = system: NCI-H522 lung
[20] = system: DU-145 prostate
[21] = system: RXF 393 renal
[22] = system: MCF7 breast
[23] = system: SK-MEL-5 melanoma
[24] = system: NCI/ADR-RES ovarian
[25] = system: A498 renal
[26] = system: SF-539 CNS
[27] = system: SNB-75 CNS
[28] = system: IGROV1 ovarian
[29] = system: OVCAR-3 ovarian
[30] = system: T-47D breast
[31] = system: NCI-H460 lung
[32] = system: BT-549 breast
[33] = system: LOX IMVI melanoma
[34] = system: PC-3 prostate
[35] = system: COLO 205 colon
[36] = system: SK-MEL-2 melanoma
[37] = system: HT29 colon
[38] = system: CAKI-1 renal
[39] = system: SNB-19 CNS
[40] = system: U251 CNS
[41] = system: HCT-15 colon
[42] = system: M14 melanoma
[43] = system: HCT-116 colon
[44] = system: UACC-257 melanoma
[45] = system: MDA-MB-435
[46] = system: RPMI-8226 leukemia
[47] = system: ACHN renal
[48] = system: MDA-MB-231 breast
[49] = system: SK-MEL-28 melanoma
[50] = system: HCC-2998 colon
[51] = system: KM12 colon
[52] = system: EKVX NSCLC
[53] = system: HS 578T breast
[54] = system: HOP-92 NSCLC
[55] = system: TK-10 renal
[56] = system: SF-268 CNS
[57] = system: MOLT-4 leukemia
[58] = system: CCRF-CEM leukemia
[59] = system: K-562 leukemia

## O=C(N/N=C\c1c(O)ccc2ccccc12)c1ccncc1
[1]
  TGI: > 25 µM
[2]
  TGI: 2.04 µM
[3]
  TGI: > 25 µM
[4]
  TGI: > 5.5 µM
[5]
  TGI: > 25 µM
[6]
  TGI: > 25 µM
[7]
  TGI: 3.95 µM
[8]
  TGI: > 25 µM
[9]
  TGI: 5.91 µM
[10]
  TGI: > 22.2 µM
[11]
  TGI: > 25 µM
[12]
  TGI: > 25 µM
[13]
  TGI: > 7.77 µM
[14]
  TGI: > 25 µM
[15]
  TGI: 2.67 µM
[16]
  TGI: > 25 µM
[17]
  TGI: 24.3 µM
[18]
  TGI: > 25 µM
[19]
  TGI: > 7.49 µM
[20]
  TGI: > 25 µM
[21]
  TGI: > 8.59 µM
[22]
  TGI: > 7.75 µM
[23]
  TGI: > 9.41 µM
[24]
  TGI: > 8.64 µM
[25]
  TGI: > 15.6 µM
[26]
  TGI: 8.2 µM
[27]
  TGI: > 25 µM
[28]
  TGI: 1.84 µM
[29]
  TGI: > 25 µM
[30]
  TGI: > 25 µM
[31]
  TGI: > 6.82 µM
[32]
  TGI: > 8.19 µM
[33]
  TGI: > 25 µM
[34]
  TGI: > 25 µM
[35]
  TGI: > 14.2 µM
[36]
  TGI: > 9.41 µM
[37]
  TGI: > 25 µM
[38]
  TGI: > 4.94 µM
[39]
  TGI: > 25 µM
[40]
  TGI: > 25 µM
[41]
  TGI: > 25 µM
[42]
  TGI: > 19.4 µM
[43]
  TGI: > 25 µM
[44]
  TGI: > 25 µM
[45]
  TGI: > 25 µM
[46]
  TGI: > 5.06 µM
[47]
  TGI: > 13.5 µM
[48]
  TGI: > 5.71 µM
[49]
  TGI: > 25 µM
[50]
  TGI: > 25 µM
[51]
  TGI: > 25 µM
[52]
  TGI: > 25 µM
[53]
  TGI: > 25 µM
[54]
  TGI: 18.8 µM
[55]
  TGI: > 25 µM

## O=c1[nH]cnc2[nH]cc(CN3CCCCC3)c12
[1]
  TGI: > 100 µM
[2]
  TGI: > 100 µM
[3]
  TGI: > 100 µM
[4]
  TGI: > 100 µM
[5]
  TGI: > 100 µM
[6]
  TGI: > 100 µM
[7]
  TGI: > 100 µM
[8]
  TGI: > 100 µM
[9]
  TGI: 38.2 µM
[10]
  TGI: > 100 µM
[11]
  TGI: > 100 µM
[12]
  TGI: > 100 µM
[13]
  TGI: > 100 µM
[14]
  TGI: > 100 µM
[15]
  TGI: > 100 µM
[16]
  TGI: > 100 µM
[17]
  TGI: > 100 µM
[18]
  TGI: > 100 µM
[19]
  TGI: > 100 µM
[20]
  TGI: > 100 µM
[21]
  TGI: > 100 µM
[22]
  TGI: > 100 µM
[23]
  TGI: > 100 µM
[24]
  TGI: > 100 µM
[25]
  TGI: > 100 µM
[26]
  TGI: > 100 µM
[27]
  TGI: > 100 µM
[28]
  TGI: > 100 µM
[29]
  TGI: > 100 µM
[56]
  TGI: > 100 µM
[30]
  TGI: > 100 µM
[31]
  TGI: 43.8 µM
[32]
  TGI: > 100 µM
[33]
  TGI: > 100 µM
[34]
  TGI: > 100 µM
[35]
  TGI: > 100 µM
[36]
  TGI: > 100 µM
[37]
  TGI: > 100 µM
[38]
  TGI: > 100 µM
[39]
  TGI: > 100 µM
[40]
  TGI: > 100 µM
[41]
  TGI: > 100 µM
[42]
  TGI: > 100 µM
[43]
  TGI: 30.6 µM
[44]
  TGI: 87.3 µM
[45]
  TGI: > 100 µM
[46]
  TGI: 87.2 µM
[47]
  TGI: > 100 µM
[48]
  TGI: > 100 µM
[49]
  TGI: > 100 µM
[57]
  TGI: > 100 µM
[51]
  TGI: > 100 µM
[58]
  TGI: 36.2 µM
[52]
  TGI: > 100 µM
[59]
  TGI: > 100 µM
[53]
  TGI: > 100 µM
[54]
  TGI: > 100 µM
[55]
  TGI: > 100 µM
